Data: patent EP0782854A2, “Use of isopropyl-2-(1,3-dithietan-2-ylidene)-2-(N-(4-methylthiazol-2-yl)carbamoyl)acetate as a cancer chemopreventive agent” (Yuhan Corporation, priority 1995, dated 1997)

Columns and labels:
[1] = tested on: Salmonella typhimurium TA100; experiment: Ames His+ reversion assay, mutagenesis induced by B[a]P (liquid preincubation, S9); assay type: cell-based; settings: 2.5µg B[a]P, control (0 µg) 248±26.0
Method: (§1) Male Sprague-Dawley rats (40 to 45 day old) were fed with a standard laboratory pellet diet and water ad libitum under standard conditions(12h light-12h dark cycle, temp.: 21±2°C). They were treated intraperitoneally with Aroclor 1254 (500mg/kg in corn oil) for 5 consecutive days prior to sacrifice. Rats were killed by CO2 asphyxiation, and their livers were immediately removed and perfused in situ with ice-cooled isotonic KCl solution. The liver tissue was weighed, minced, and homogenized in 3-fold volumes of ice-cooled 0.25M sucrose solution by employing a motorized Potter-Elvehjem glass-Teflon homogenizer. The homogenates were centrifuged at 9,000 X g for 30 minutes and the supernatant(S9 fraction) was used as the source of enzymes.
(§2) The Ames His+ reversion assay was performed in accordance with the liquid preincubation method using Salmonella typhimurium TA98 and TA100 as test strains[see D.M. Maton and B. N. Ames, Mutation Res., 113, pp. 173-221(1983)].
(§3) Each of TA98 and TA100(1 to 2 x 10^9/plate) and 2.5µg of B[a]P dissolved in DMSO were added to the Aroclor 1254-induced rat hepatic postmitochondrial supernatant containing NADPH-generating system obtained above([…] containing about 2mg protein). Various amounts of isopropyl 2-(1,3-dithietan-2-ylidene)-2-[N-(4-methylthiazol-2-yl)carbamoyl]acetate were added thereto, and preincubated at 37°C for 20 minutes.
(§4) The mixture was then diluted with soft agar, poured onto hard agar plates, and incubated for another 48 hours to allow the development of His+ revertant colonies. The data were corrected for the numbers of spontaneous revertant.

[2] = tested on: Salmonella typhimurium TA98; experiment: as above; assay type: cell-based; settings: 2.5µg B[a]P, control (0 µg) 116±3.6
Method: as §1, §2, §3, §4

[3] = tested on: Salmonella typhimurium TA100; experiment: Ames His+ reversion assay, mutagenesis induced by BPDE; assay type: cell-based; settings: 25nmol BPDE; for No. of His+ revertant/plate: control (0 µg) 706
Method: (§5) The Ames His+ reversion assay was performed in accordance with the liquid preincubation method using Salmonella typhimurium TA100 as a test strain[see D.M. Maton and B. N. Ames, Mutation Res., 113, pp. 173-221(1983)].
(§6) 25nmol of BPDE was incubated with S. typhimurium TA100 in the absence or presence of a given amount of isopropyl 2-(1,3-dithietan-2-ylidene)-2-[N-(4-methylthiazol-2-yl)carbamoyl]acetate at 37 °C for 20 minutes.
(§7) Then, the mixture was diluted with soft agar, poured onto hard agar plates, and incubated for another 48 hours to allow the development of His+ revertant colonies. The data are expressed as average of values from duplicate analysis.

[4] = tested on: Salmonella typhimurium TA100 and TA1535; experiment: Ames His+ reversion assay, mutagenesis induced by VC (Figure 1); assay type: cell-based; settings: vinyl carbamate 10µmol; compound 2.5µg and 25µg; values only in Figure 1
Method: as §1, §2
[…] Various amounts of isopropyl 2-(1,3-dithietan-2-ylidene)-2-[N-(4-methylthiazol-2-yl)carbamoyl]acetate were added thereto, and preincubated at 37°C for 20 minutes.
The mixture was then diluted with soft agar, poured onto hard agar plates, and incubated for another 48 hours to allow the development of His+ revertant colonies. The data were corrected for the numbers of spontaneous revertant. […]

[5] = tested on: Salmonella typhimurium TA100; experiment: Ames His+ reversion assay, mutagenesis induced by VC epoxide; assay type: cell-based
Method: as §5, §6, §7
The procedure of Test Example 1-2 was repeated except that Salmonella typhimurium TA100 was used as a test strain and vinyl carbamate epoxide(25 and 50nmol) was used as mutagens.

calf thymus DNA = experiment: Covalent binding test of [3H]-B[a]P to DNA; assay type: biochemical; settings: 37°C, 30 minutes, control (0 µM) 60±7.1
Method: 2ml of the mixture of 50mM potassium phosphate buffer (pH 7.4) containing 0.25µg of [^3H]-B[a]P(specific activity: 12.35mCi/mmol), 2mg of calf thymus DNA, 25mg of EDTA, NADPH(0.65mM), and 4 mg of hepatic postmitochondrial supernatant was incubated with isopropyl 2-(1,3-dithietan-2-ylidene)-2-[N-(4-methylthiazol-2yl)carbamoyl]acetate of various concentrations at 37°C for 30 minutes.
DNA was isolated by ethanol precipitation after the removal of proteins. DNA pellets thus obtained were successively rinsed with 75% ethanol containing 1% NaCl, 75% ethanol, absolute ethanol, acetone and ethyl ether, and then dried.
Dried DNA samples were dissolved in 15 mM NaCl-1.5mM sodium citrate buffer(pH 7.0). The DNA concentration was determined by diphenylamine method using calf thymus DNA as a standard[see K. Burton and G.B. Peterson, Biochem. J., 75, pp.17-27, 1960].
Aliqouts of DNA solutions were dissolved in Solvable(Du Pont/NEN Research Products, Boston, MA). After neutralization with glacial acetic acid, the levels of radio-labeled hydrocarbons covalently bound to DNA were determined by employing a liquid scintillation counter with the addition of Liquescent(National Diagnostics, Manville, NJ) as a cocktail.

mouse skin tumor [6] = experiment: Mouse skin tumor test, carcinogenesis induced by VC (topical initiation, TPA promotion); assay type: in vivo, female ICR mice; settings: VC 5.8 µmol topical, pretreatment 2.5µmol compound or 8µmol diallyl sulfide
Method: (§8) Inhibitory effect of isopropyl 2-(1,3-dithietan-2-ylidene)-2-[N-(4-methylthiazol-2-yl)carbamoyl]acetate on mouse skin tumor was also investigated.
The dorsal region of female ICR mice (6- to 7-week old) was shaved. Groups of 30 mice were administered with 2.5µmol isopropyl 2-(1,3-dithietan-2-ylidene)-2-[N-(4-methylthiazol-2-yl)carbamoyl]acetate in 0.2% sodium carboxymethyl cellulose or 8µmol of diallyl sulfide in 0.1M sterilized potassium phosphate buffer. After 10 minutes, the mice were administered topically with VC(5.8 µmol) in 0.2ml acetone containing 15% DMSO. Control group was administered with VC alone.
One week after the initiation, the mice were administered topically with 15nmol TPA(12-O-tetradecanoyl phorbol-13-acetate)in 0.1 ml acetone twice a week to promote carcinogenic process.
Tumors of at least 1 mm in diameter were counted and recorded every other week. The results are shown in Table V. Numbers in parentheses indicate the % of tumor bearing mice.

mouse skin tumor [7] = experiment: Mouse skin tumor test, carcinogenesis induced by B[a]P or VC (gavage pretreatment, TPA promotion); assay type: in vivo, female CD-1 mice; settings: 16 weeks, diallyl sulfide 0.2mg/10µl/g body wt.
Method: as §8
trioctanoin, or isopropyl 2-(1,3-dithietan-2-ylidene)-2-[N-(4-methylthiazol-2-yl)carbamoyl]acetate(0.15mg/10µl/g body wt.) or diallyl sulfide(0.2mg/10µl/g body wt.) suspended in trioctanoin were administered to female CD-1 mice(6 weeks old) by gastric gavage method 24 hours and 1 hour prior to the intraperitoneal injection of B[a]P(0.3µmol) or VC(11.5µmol) in 0.2ml acetone or the same volume of acetone alone.
One week after the initiation, animals were administered topically with 15nmol TPA(12-O-tetradecanoyl phorbol-13-acetate) in 0.1ml acetone twice a week to promote carcinogenesis.
Tumors of at least 1 mm in diameter were counted and recorded at 16 weeks after initiation.

[8] = initiator B[a]P 0.3µmol, gavage pretreatment compound 0.15mg/10µl/g, trioctanoin control 6.7±5.1
[9] = initiator B[a]P 0.3µmol, gavage pretreatment compound 0.15mg/10µl/g, trioctanoin control 92
[10] = initiator VC 11.5µmol, gavage pretreatment compound 0.15mg/10µl/g, trioctanoin control 1.0±1.6
[11] = initiator VC 11.5µmol, gavage pretreatment compound 0.15mg/10µl/g, trioctanoin control 58
[12] = initiator acetone alone, gavage 24 hours and 1 hour before, compound 0.15mg/10µl/g

Structure (SMILES): Cc1csc(NC(=O)C(C(=O)OC(C)C)=C2SCS2)n1 [Compound, Isopropyl 2-(1,3-dithietan-2-ylidene)-2-[N-(4-methylthiazol-2-yl)carbamoyl]acetate]
- No. of His+ revertant/plate ([1]; compound 1 µg): 205±23.1
- No. of His+ revertant/plate ([1]; compound 5 µg): 140±4.6
- No. of His+ revertant/plate ([1]; compound 25 µg): 93±8.7
- No. of His+ revertant/plate ([2]; compound 1 µg): 84±16.1
- No. of His+ revertant/plate ([2]; compound 5 µg): 48±3.2
- No. of His+ revertant/plate ([2]; compound 25 µg): 23±2.5
- % inhibition ([3]; compound 2.5 µg): 58%
- No. of His+ revertant/plate ([3]; compound 2.5 µg): 301
- % inhibition ([3]; compound 10 µg): 69%
- No. of His+ revertant/plate ([3]; compound 10 µg): 217
- % inhibition ([3]; compound 25 µg): 74%
- No. of His+ revertant/plate ([3]; compound 25 µg): 180
- effect on mutagenesis induced by VC [4]: dose-dependently inhibit
- No. of His+ revertant/plate ([5]; VC epoxide 25 nmol, compound 2.5 µg, control (0 µg) 283): 247
- No. of His+ revertant/plate ([5]; VC epoxide 25 nmol, compound 10 µg, control (0 µg) 283): 239
- No. of His+ revertant/plate ([5]; VC epoxide 25 nmol, compound 25 µg, control (0 µg) 283): 201
- No. of His+ revertant/plate ([5]; VC epoxide 50 nmol, compound 2.5 µg, control (0 µg) 598): 541
- No. of His+ revertant/plate ([5]; VC epoxide 50 nmol, compound 10 µg, control (0 µg) 598): 509
- No. of His+ revertant/plate ([5]; VC epoxide 50 nmol, compound 25 µg, control (0 µg) 598): 471
- Covalent DNA binding (calf thymus DNA; compound 5 µM): 22 ± 2.0 pmol
- Covalent DNA binding (calf thymus DNA; compound 50 µM): 16 ± 3.2 pmol
- Average No. of papillomas/mouse (mouse skin tumor [6]; week 14, VC alone 0.9±1.1): 0.2±0.5
- % of tumor bearing mice (mouse skin tumor [6]; week 14, VC alone 53): 20%
- Average No. of papillomas/mouse (mouse skin tumor [6]; week 16, VC alone 1.4±1.7): 0.4±0.7
- % of tumor bearing mice (mouse skin tumor [6]; week 16, VC alone 63): 30%
- Average No. of papillomas/mouse (mouse skin tumor [6]; week 18, VC alone 1.8±1.9): 0.6±0.9
- % of tumor bearing mice (mouse skin tumor [6]; week 18, VC alone 67): 40%
- Average No. of papillomas/mouse (mouse skin tumor [6]; week 20, VC alone 2.4±2.1): 0.8±1.0
- % of tumor bearing mice (mouse skin tumor [6]; week 20, VC alone 70): 50%
- Ave. No. of tumor/mouse (mouse skin tumor [7]; [8]): 2.8±3.4
- % mice with papillomas (mouse skin tumor [7]; [9]): 72%
- Ave. No. of tumor/mouse (mouse skin tumor [7]; [10]): 0.5±0.8
- % mice with papillomas (mouse skin tumor [7]; [11]): 36%
- % mice with papillomas (mouse skin tumor [7]; [12]): 0%
- Ave. No. of tumor/mouse (mouse skin tumor [7]; [12]): 0

Structure (SMILES): C=CCSCC=C [Diallyl sulfide, reference compound]
- Average No. of papillomas/mouse (mouse skin tumor [6]; week 14, VC alone 0.9±1.1): 0.2±0.5
- % of tumor bearing mice (mouse skin tumor [6]; week 14, VC alone 53): 17%
- Average No. of papillomas/mouse (mouse skin tumor [6]; week 16, VC alone 1.4±1.7): 0.5±0.9
- % of tumor bearing mice (mouse skin tumor [6]; week 16, VC alone 63): 30%
- Average No. of papillomas/mouse (mouse skin tumor [6]; week 18, VC alone 1.8±1.9): 0.7±1.1
- % of tumor bearing mice (mouse skin tumor [6]; week 18, VC alone 67): 37%
- Average No. of papillomas/mouse (mouse skin tumor [6]; week 20, VC alone 2.4±2.1): 0.9±1.1
- % of tumor bearing mice (mouse skin tumor [6]; week 20, VC alone 70): 50%
- Ave. No. of tumor/mouse (mouse skin tumor [7]; [8]): 4.0±5.6
- % mice with papillomas (mouse skin tumor [7]; [9]): 64%
- Ave. No. of tumor/mouse (mouse skin tumor [7]; [10]): 0.4±0.9
- % mice with papillomas (mouse skin tumor [7]; [11]): 28%
- % mice with papillomas (mouse skin tumor [7]; [12]): 0%
- Ave. No. of tumor/mouse (mouse skin tumor [7]; [12]): 0
